One block for each molecule: values may come before it.
Experiments:
RET = RET (Homo sapiens, UniProt P07949); assay: Kinase selectivity, Z'-LYTE
Procedure: (§6) Enzymatic reaction: In a 384-well plate, added 5 μL of enzyme-substrate system [50 mM 4-hydroxyethylpiperazineethanesulfonic acid (HEPES) pH 7.5, 0.01% BRIJ-35, 10 mM of magnesium chloride (MgCl2), 1 mM of ethylene glycol bis(2-aminoethyl ether)tetraacetic acid (EGTA), 2 μM of Tyr 01 peptide substrate], transferred 5 nL of compound (concentration gradient) using an Echo520 Ultra-Micro Liquid Pipetting System. […] Shaked and mixed, then centrifuged, and reacted at 30° C. in the dark for 1.5 hours.

VEGFR2 = VEGFR2 (Homo sapiens, UniProt P35968); assay: Kinase selectivity, Z'-LYTE
Procedure: as §6

Kit = Kit (Homo sapiens, UniProt P10721); assay: Kinase selectivity, Z'-LYTE
Procedure: as §6

PDGFRA = PDGFRA (Homo sapiens, UniProt P16234); assay: Kinase selectivity, Z'-LYTE
Procedure: as §6

SRC = SRC (Homo sapiens, UniProt P12931); assay: Kinase selectivity, Z'-LYTE
Procedure: as §6

[1] = test system: Ba/F3-CD74-TRKAG^667C allograft mouse model; assay: In vivo antitumor efficacy, allograft mouse model; set-up: species or system CB17-SCID female mice; settings: for TGI: after treatment for 12 days
Procedure: (§1) After washed twice with normal saline, the cells were adjusted to a density of 1×10^7 cells/mL and placed on ice, and injected subcutaneously into the right axilla of CB17-SCID female mice (purchased from Viton Lever, Beijing, 6-8 weeks old) as soon as possible, with 200 μL each injection.
(§2) The control group was given the same volume of mixed solvent orally. Body weight and tumor volume were recorded every two days.

[2] = Effect on the body weight of mice in the allograft study; type: in vivo, CB17-SCID female mice; settings: four doses 6.25, 12.5, 25, 50 mg/kg oral once a day
Procedure: as §1, §2

[3] = Pharmacokinetic and oral bioavailability tests in SD rats; type: in vivo
Procedure: Pharmacokinetic and oral bioavailability tests were performed in SD rats. According to the drug's solubility, the drug was administered orally and intravenously as a single dose. Animal blood samples were collected at different time points (0, 0.5, 1, 2, 4, 6, 8, 24 hours), and added with heparin for anticoagulation, then centrifugated to obtain the supernatant. Blood samples were analyzed by HPLC-MS, and DAS2.1 was used for data analysis to detect half-life (T½), maximum blood concentration (Cmax), peak time (Tmax), area under the curve (AUC), and bioavailability (BA) and other pharmacokinetic data.

BaF3-ETV6-NTRK3 = molecular target: T1, BaF3-ETV6-NTRK3 (Homo sapiens, UniProt Q16288); assay: Cell proliferation inhibition, Ba/F3-TRKs stable strain (CCK-8); type: cell-based, mouse; settings: 72 hours, read-out: cell viability IC50 ETV6-NTRK3
T1 construct: fused on or other part: P41212 (Transcription factor ETV6)
T1 sequence (Q16288 whole entry, the tested form may be a part): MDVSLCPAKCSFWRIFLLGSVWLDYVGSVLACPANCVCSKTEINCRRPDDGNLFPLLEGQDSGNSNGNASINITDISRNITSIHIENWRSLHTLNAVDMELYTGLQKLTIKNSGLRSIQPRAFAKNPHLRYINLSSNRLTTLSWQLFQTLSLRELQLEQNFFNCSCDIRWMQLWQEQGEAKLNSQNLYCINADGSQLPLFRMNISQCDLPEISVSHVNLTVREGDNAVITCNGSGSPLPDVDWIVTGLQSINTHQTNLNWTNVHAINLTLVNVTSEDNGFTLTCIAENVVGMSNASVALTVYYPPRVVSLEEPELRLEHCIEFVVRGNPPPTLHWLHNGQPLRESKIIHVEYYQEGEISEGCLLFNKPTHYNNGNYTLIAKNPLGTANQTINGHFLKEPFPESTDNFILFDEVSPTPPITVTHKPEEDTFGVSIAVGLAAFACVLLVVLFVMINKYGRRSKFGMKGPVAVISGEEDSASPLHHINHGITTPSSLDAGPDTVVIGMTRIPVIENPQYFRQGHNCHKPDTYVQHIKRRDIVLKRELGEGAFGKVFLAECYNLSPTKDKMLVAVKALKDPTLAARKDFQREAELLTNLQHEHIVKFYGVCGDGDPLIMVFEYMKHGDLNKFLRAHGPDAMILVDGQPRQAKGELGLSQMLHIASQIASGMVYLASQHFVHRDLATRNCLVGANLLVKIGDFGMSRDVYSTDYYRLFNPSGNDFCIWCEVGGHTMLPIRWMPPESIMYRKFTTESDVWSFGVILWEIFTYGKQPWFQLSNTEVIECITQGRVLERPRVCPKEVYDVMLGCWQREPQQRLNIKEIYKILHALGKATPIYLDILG
Source text: (§3) The BaF3 cells (mouse pre-B cells) used in this experiment were purchased from the Japanese Cell Bank. All of the monoclonal stable strains, BaF3-CD74-NTRK1, BaF3-ETV6-NTRK2 and BaF3-ETV6-NTRK3 were constructed by our laboratory, and were identified by experiments such as positive control, protein expression and gene sequencing.
(§4) The brief steps of stable strain construction were as follows: constructed pCDNA3.1(+) plasmid vector carrying genes such as CD74-NTRK1, ETV6-NTRK2, ETV6-NTRK3; the plasmid was electroporated into Ba/F3 cells using Amaxa® Cell Line Nucleofector® Kit V; 48 hours after electroporation, geneticin (G418) with a final concentration of 1000 μg/mL was added to screen for two weeks, and the interleukin 3 (IL3) was removed to continue screening to obtain polyclonal stable strains; and then single clones were selected by limiting dilution method; the stable strains were then identified by the positive drugs, Western Blot (WB), and gene sequencing; the correct monoclonal through identification can be used to study the cell proliferation inhibitory activity of the inhibitors.
(§5) Cell proliferation inhibitory activity study: The cells in logarithmic growth phase were seeded into 96-well plates at 8000-12000 cells/well, and the inhibitors at different concentrations of (0-10 μM) were added the next day, and the culture was continued for 72 hours; then 10 μL of Cell Counting Kit-8 Cell Counting Reagent (CCK-8 Reagent) was added to each well, and continued to incubate for 1-3 hours; then its absorbance at 450 nm and 650 nm were measured with a super microplate reader. The median inhibitory concentration (IC50) was calculated using medical graphing software (GraphPad Prism 8.0.0).

BaF3-CD74-NTRK1 = molecular target: T2, BaF3-CD74-NTRK1 (Homo sapiens, UniProt P04629); assay: as above; type: cell-based, mouse; settings: 72 hours, read-out: cell viability IC50 CD74-NTRK1
T2 construct: fused on or other part: P04233 (HLA class II histocompatibility antigen gamma chain)
T2 sequence (P04629 510-796 limits assumed): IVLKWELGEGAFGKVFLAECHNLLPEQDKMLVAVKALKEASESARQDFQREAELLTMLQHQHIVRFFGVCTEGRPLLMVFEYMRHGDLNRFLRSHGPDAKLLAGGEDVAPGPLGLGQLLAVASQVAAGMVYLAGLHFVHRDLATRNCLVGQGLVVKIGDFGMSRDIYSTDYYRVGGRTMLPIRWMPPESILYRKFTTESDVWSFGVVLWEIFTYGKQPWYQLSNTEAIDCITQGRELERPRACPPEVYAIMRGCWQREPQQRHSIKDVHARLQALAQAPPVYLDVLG
Source text: as §3, §4, §5

TRKA = molecular target: T3, TRKA (Homo sapiens, UniProt P04629); assay: Z'-LYTE kinase activity detection, TRKA; type: biochemical
T3 construct: purchased American Life Technologies PV3144
T3 sequence (P04629 33-796): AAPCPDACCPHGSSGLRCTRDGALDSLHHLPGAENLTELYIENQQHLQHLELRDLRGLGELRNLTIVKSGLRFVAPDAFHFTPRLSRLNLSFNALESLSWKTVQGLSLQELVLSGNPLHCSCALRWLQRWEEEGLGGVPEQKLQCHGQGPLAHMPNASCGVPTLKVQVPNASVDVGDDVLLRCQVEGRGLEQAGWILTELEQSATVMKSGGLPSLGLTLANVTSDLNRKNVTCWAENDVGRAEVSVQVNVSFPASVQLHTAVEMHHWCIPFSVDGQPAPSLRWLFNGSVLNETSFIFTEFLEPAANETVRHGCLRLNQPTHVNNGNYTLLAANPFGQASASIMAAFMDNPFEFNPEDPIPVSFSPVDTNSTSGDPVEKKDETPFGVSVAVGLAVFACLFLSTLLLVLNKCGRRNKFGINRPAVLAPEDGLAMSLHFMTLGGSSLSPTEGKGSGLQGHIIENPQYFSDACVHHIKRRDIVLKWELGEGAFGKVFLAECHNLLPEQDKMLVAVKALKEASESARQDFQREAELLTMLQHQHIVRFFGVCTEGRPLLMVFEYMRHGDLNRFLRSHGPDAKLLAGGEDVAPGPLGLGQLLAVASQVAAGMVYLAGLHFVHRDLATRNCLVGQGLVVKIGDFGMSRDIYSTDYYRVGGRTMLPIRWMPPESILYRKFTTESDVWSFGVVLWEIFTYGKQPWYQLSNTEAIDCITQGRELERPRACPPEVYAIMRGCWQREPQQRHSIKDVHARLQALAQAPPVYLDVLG

Bcr-Abl = Bcr-Abl (Homo sapiens, UniProt P00519); assay: Kinase selectivity, Z'-LYTE
Bcr-Abl, sequence (P00519 242-493 limits assumed): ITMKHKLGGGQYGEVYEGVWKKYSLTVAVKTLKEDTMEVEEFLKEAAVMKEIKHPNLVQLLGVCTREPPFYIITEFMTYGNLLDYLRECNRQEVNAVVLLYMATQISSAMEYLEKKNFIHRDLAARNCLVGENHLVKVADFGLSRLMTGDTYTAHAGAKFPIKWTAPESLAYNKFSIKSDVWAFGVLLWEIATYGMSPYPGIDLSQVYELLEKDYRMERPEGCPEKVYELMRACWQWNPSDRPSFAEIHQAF
Procedure: as §6

PDGFRB = PDGFRB (Homo sapiens, UniProt P09619); assay: Kinase selectivity, Z'-LYTE
Procedure: as §6

TRKB = molecular target: T4, TRKB (Homo sapiens, UniProt Q16620); assay: Z'-LYTE kinase activity detection, TRKB; type: biochemical
T4 construct: purchased American Life Technologies PV3616
T4 sequence (Q16620 32-822): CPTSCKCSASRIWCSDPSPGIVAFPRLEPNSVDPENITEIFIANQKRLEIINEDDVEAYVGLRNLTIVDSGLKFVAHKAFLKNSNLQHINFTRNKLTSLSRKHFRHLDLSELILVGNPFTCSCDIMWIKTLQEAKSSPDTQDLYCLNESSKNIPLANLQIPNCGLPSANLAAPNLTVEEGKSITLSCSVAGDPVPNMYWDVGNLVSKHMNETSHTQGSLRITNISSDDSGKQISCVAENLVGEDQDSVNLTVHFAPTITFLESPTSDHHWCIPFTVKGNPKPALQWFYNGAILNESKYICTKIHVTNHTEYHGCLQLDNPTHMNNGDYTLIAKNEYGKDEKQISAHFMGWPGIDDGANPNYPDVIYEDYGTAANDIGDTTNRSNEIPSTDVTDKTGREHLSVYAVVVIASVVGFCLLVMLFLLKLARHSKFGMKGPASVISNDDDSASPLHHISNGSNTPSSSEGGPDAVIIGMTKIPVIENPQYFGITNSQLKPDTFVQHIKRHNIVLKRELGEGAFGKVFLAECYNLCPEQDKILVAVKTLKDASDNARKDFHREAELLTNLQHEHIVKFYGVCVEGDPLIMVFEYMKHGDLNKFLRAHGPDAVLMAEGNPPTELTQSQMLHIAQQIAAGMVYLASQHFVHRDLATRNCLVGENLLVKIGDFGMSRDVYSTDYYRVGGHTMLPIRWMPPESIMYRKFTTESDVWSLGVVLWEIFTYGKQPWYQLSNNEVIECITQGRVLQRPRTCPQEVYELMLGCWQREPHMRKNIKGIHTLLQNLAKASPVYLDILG

BaF3-ETV6-NTRK2 = molecular target: T5, BaF3-ETV6-NTRK2 (Homo sapiens, UniProt Q16620); assay: Cell proliferation inhibition, Ba/F3-TRKs stable strain (CCK-8); type: cell-based, mouse; settings: 72 hours, read-out: cell viability IC50 ETV6-NTRK2
T5 construct: fused on or other part: P41212 (Transcription factor ETV6)
T5 sequence (Q16620 538-822 limits assumed): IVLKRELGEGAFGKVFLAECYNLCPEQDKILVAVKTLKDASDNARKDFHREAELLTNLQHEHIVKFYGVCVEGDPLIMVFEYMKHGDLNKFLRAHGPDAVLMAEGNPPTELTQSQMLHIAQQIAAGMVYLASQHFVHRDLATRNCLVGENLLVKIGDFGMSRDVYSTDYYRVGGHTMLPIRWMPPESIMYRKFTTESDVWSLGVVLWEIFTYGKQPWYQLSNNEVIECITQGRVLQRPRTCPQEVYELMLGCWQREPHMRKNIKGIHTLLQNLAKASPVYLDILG
Source text: as §3, §4, §5

[4] = Sprague-Dawley (SD), rat, plasma, intravenous injection, 2.0 mg/kg
[5] = Sprague-Dawley (SD), rat, plasma, oral, 10.0 mg/kg

RET, sequence (P07949 29-1114, species assumed): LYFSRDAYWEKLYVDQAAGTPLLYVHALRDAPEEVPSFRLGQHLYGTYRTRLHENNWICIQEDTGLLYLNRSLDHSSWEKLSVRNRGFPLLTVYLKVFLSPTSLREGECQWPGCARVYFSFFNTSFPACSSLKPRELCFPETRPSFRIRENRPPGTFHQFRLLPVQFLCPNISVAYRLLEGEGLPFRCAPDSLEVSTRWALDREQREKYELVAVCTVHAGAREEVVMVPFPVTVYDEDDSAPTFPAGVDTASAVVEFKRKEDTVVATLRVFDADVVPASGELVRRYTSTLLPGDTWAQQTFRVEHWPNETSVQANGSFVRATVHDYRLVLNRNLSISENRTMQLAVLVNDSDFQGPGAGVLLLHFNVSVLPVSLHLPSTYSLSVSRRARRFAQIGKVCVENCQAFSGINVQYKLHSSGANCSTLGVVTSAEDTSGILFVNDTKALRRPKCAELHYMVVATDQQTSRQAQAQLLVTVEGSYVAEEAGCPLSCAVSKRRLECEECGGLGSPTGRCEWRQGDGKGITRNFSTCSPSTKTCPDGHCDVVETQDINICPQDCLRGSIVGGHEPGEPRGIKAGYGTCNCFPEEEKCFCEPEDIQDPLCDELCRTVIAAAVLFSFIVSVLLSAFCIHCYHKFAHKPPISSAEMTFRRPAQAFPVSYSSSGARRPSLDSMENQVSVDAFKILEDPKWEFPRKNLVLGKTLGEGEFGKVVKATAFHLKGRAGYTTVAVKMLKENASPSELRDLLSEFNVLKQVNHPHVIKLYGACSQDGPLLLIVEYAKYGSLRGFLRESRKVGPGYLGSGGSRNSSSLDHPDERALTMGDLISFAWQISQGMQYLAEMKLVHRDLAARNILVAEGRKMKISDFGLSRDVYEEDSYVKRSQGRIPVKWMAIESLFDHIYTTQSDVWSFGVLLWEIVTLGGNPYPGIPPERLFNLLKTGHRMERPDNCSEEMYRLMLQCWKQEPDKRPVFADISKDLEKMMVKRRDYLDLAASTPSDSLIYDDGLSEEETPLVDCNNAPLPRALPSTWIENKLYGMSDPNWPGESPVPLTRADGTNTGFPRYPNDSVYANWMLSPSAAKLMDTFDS
SRC, sequence (P12931 whole entry, species assumed): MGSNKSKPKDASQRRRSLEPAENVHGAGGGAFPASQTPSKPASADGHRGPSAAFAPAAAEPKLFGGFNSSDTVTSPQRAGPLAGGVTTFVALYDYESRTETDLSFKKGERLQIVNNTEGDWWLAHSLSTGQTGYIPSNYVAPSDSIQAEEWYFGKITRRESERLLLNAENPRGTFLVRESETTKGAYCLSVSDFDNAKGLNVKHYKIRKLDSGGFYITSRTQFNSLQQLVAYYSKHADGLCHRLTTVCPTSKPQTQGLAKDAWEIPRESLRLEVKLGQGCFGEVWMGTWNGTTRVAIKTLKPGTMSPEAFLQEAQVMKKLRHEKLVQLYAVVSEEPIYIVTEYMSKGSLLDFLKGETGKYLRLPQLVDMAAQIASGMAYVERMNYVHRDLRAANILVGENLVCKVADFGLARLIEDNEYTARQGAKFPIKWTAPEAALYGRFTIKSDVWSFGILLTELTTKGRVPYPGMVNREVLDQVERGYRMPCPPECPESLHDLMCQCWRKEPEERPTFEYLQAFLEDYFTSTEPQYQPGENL

- IC50 (RET): > 10 µM
- IC50 (VEGFR2): 833 nM
- IC50 (Kit): 1670 nM
- IC50 (PDGFRA): 5.89 µM
- IC50 (SRC): 526 nM
- AUC(0-inf) [3, 4]: 549 µg·h/mL
- AUC(0-t) [3, 4]: 358 µg·h/mL
- Cmax [3, 4]: 46100 ng/mL
- Tmax [3, 4]: 0.08 h
- half-life [3, 4]: 964 min
- clearance ([3]; Sprague-Dawley (SD), rat, plasma, intravenous injection, 2.0 mg/kg, read-out: Clearance rate (converted)): 3.65 mL/h/kg
- AUC(0-inf) [3, 5]: 878 µg·h/mL
- AUC(0-t) [3, 5]: 561 µg·h/mL
- Cmax [3, 5]: 44100 ng/mL
- Tmax [3, 5]: 4 h
- half-life [3, 5]: 911 min
- BA ([3]; oral 10.0 mg/kg vs intravenous 2.0 mg/kg): 31.32%
- IC50 (TRKA): < 10 nM
- IC50 (Bcr-Abl): > 10 µM
- IC50 (PDGFRB): > 10 µM
SMILES: Cc1c(C#Cc2cnc3ccc(N4CCC(O)CC4)nn23)cccc1C(=O)Nc1cc(Cl)cc(C(F)(F)F)c1 [XS3-55, N-(3-CHLORO-5-(TRIFLUOROMETHYL)PHENYL)-3-((6-(4-HYDROXYPIPERIDIN-1-YL)IMIDAZO[1,2-B]PYRIDAZINE-3-YL)ETHYNYL)-2-METHYLBENZAMIDE]
- TGI ([1]; 6.25 mg/kg/day oral): 50.9%
- TGI ([1]; 12.5 mg/kg/day oral): 76.3%
- TGI ([1]; 25 mg/kg/day oral): 89.2%
- TGI ([1]; 50 mg/kg/day oral): 91.6%
- tumor size ([1]; after 2 days of treatment at the lowest dose of 6.25 mg/kg, oral): Significant reductions in tumor size
- effect on mouse body weight [2]: no obvious adverse effect
- IC50 (BaF3-ETV6-NTRK3): 10 to 100 nM
- IC50 (BaF3-CD74-NTRK1): 10 to 100 nM

- IC50 (TRKB): < 10 nM
- IC50 (TRKA): < 10 nM
SMILES: Cc1c(C#Cc2cnc3ccc(N4CCC(O)CC4)nn23)cccc1C(=O)Nc1cc(CN2CCN(C)CC2)cc(C(F)(F)F)c1 [XS3-81, 3-((6-(4-HYDROXYPIPERIDIN-1-YL)IMIDAZO[1,2-B]PYRIDAZIN-3-YL)ETHYNYL)-2-METHYL-N-(3-(((4-METHYLPIPERAZIN-1-YL)METHYL)-5-(TRIFLUOROMETHYL)PHENYL)BENZAMIDE]
- IC50 (BaF3-ETV6-NTRK2): < 10 nM
- IC50 (BaF3-ETV6-NTRK3): < 10 nM
- IC50 (BaF3-CD74-NTRK1): 10 to 100 nM

- IC50 (TRKB): < 10 nM
- IC50 (TRKA): < 10 nM
SMILES: Cc1cn(-c2cc(NC(=O)c3cccc(C#Cc4cnc5ccc(N6CCC(O)CC6)nn45)c3C)cc(C(F)(F)F)c2)cn1 [XS3-87, 3-((6-(4-HYDROXYPIPERIDIN-1-YL)IMIDAZO[1,2-B]PYRIDAZIN-3-YL)ETHYNYL)-2-METHYL-N-(3-(4-METHYL-1H-IMIDAZOL-1-YL)-5-(TRIFLUOROMETHYL)PHENYL)BENZAMIDE]
- IC50 (BaF3-ETV6-NTRK2): 10 to 100 nM
- IC50 (BaF3-ETV6-NTRK3): < 10 nM
- IC50 (BaF3-CD74-NTRK1): < 10 nM

- IC50 (TRKB): < 10 nM
- IC50 (TRKA): < 10 nM
SMILES: Cc1c(C#Cc2cnc3ccc(N4CCOCC4)nn23)cccc1C(=O)Nc1cc(CN2CCN(C)CC2)cc(C(F)(F)F)c1 [XS3-68, 2-METHYL-N-(3-((4-METHYLPIPERAZIN-1-YL)METHYL)-5-(TRIFLUOROMETHYL)PHENYL)-3-((6-METHYLENE) LINOIMIDAZO[1,2-B]PYRIDAZIN-3-YL)ETHYNYL)BENZAMIDE]
- IC50 (BaF3-ETV6-NTRK2): 10 to 100 nM
- IC50 (BaF3-ETV6-NTRK3): < 10 nM
- IC50 (BaF3-CD74-NTRK1): < 10 nM

Reference: patent US11834454B2, “Alkynylphenylbenzamide compounds and applications thereof” (SHENZHEN NEWDEL BIOTECH CO., LTD., priority 2021, dated 2023)
